Patent US8063221B2, “Aminoquinolones as GSK-3 inhibitors” (Kyorin Pharmaceutical Co., Ltd., priority 2006, dated 2011)
Values after ≈ are worked out from the molar mass of the structure shown. Like-named read-outs stand apart in the source and are kept apart here. Each block holds one molecule with its values, some of them ahead of it.

Legend:
[1] = Animal Study 2 (oral glucose tolerance test); parameters: species or system Crlj:CD1 (ICR) mice; conditions: Mus musculus, read-out: In vivo studies 300 mg/kg (oral glucose tolerance test, % decrease)
Source text: The results of in vivo oral glucose tolerance test (Example 39), expressed as % decrease, are presented as follows: […]
Animal Study 2 (Oral Glucose Tolerance Test)
Male Crlj:CD1 (ICR) mice were obtained from Charles River Laboratries Japan (Yokohama, Japan). All mice were given a standard diet (Clea Japan, Tokyo, Japan) and tap water ad libitum. All institutional guidelines for animal care and use were applied in this study. Test compounds were suspended in 0.3% carboxymethyl-cellulose sodium salt (CMC-Na; Sigma, St. Louis, Mo.). After fasting for 15-17 hr, the test compound (300 mg/kg) or vehicle (0.3% CMC-Na) was orally administered to 7-week-old ICR mice. Glucose solution (5 g/kg) was orally administered at 30 min after test compound treatment. Blood samples were collected from tail vein using capillary tubes containing EDTA·2K before test compound treatment, and at 0, 0.5, 1, and 2 hr after glucose load. The blood samples were centrifuged at 2,500×g for 5 min and separated plasma was kept on ice and analyzed in the same day. Plasma glucose levels were determined using the glucose C II-test (Wako Pure Chemical Industries, Osaka, Japan).
The sum of plasma glucose levels at 0.5 and 1 hr after glucose load was compared to that of vehicle treatment, and results were presented as percent decrease.

[2] = biological target: T1, recombinant full-length human GSK3β (Homo sapiens, UniProt P49841); test: Luciferase-coupled cell-free GSK3β kinase assay; type: biochemical
T1 construct: recombinant full-length human GSK3β (Upstate); purchased Upstate
T1 sequence (P49841 whole entry): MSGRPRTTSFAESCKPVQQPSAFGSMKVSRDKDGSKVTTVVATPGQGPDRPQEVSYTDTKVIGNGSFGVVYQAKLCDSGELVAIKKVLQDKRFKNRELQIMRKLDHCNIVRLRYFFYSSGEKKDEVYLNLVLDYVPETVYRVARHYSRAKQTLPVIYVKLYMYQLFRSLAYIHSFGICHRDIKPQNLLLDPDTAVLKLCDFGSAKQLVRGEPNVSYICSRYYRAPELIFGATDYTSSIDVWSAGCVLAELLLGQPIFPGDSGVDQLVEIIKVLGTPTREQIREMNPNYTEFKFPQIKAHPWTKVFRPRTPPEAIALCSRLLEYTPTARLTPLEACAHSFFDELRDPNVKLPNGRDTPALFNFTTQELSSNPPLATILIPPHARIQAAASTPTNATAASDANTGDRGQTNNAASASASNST
Method in brief: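 GSK3β, 10-25 ng, was incubated with compound for 1 h at 30° C in MOPS pH 7.0 buffer containing 62.5 μM phospho-glycogen synthase peptide-2 and 5 μM ATP. Remaining ATP was read by KinaseGlo luminescence, and IC50 was fitted from % inhibition relative to maximal inhibition.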

E. coli, ATCC8739 = test: Antibacterial activity (MIC), E. coli; type: cell-based; conditions: Escherichia coli
Source text: (§1) As used herein, a minimum inhibitory concentration (MIC) for bacterial growth assay is the lowest level of a compound needed to cause an inhibition to bacterial growth in culture medium. In certain embodiments, the antibacterial activity of compounds herein, measured as MIC.
(§2) In certain embodiments, GSK3 inhibitors provided herein are substantially free of antibacterial activity or having very low antibacterial activity. The antibacterial activity can be measured by methods known in the art by estimating a minimum inhibitory concentration (MIC) for test compounds. A MIC is the lowest level of a compound needed to cause an inhibition to bacterial growth in a culture medium. […] (Clinical and Laboratory Standards Institute. Methods for Dilution Antimicrobial Susceptibility Tests for Bacteria That Grow Aerobically; Approved Standard-Sixth Edition: CLSI document […]. CLSI, Wayne, Pa. (2003))
(§3) Antibacterial activity for E. coli, ATCC8739 andS. aureus Smith expressed as MIC (μM) is provided as follows: […]

S. aureus Smith = test: Antibacterial activity (MIC), S. aureus; type: cell-based; conditions: Staphylococcus aureus
Source text: as §1, §2, §3

[3] = Table 2, 300 mg/kg oral, ICR mice, plasma glucose 0.5 and 1 hr after glucose load vs vehicle
[4] = ATCC8739, Table 2, E. coli ATCC8739, read-out: Antimicrobial MIC [μM] E. Coli
[5] = Table 2, S. aureus Smith, read-out: Antimicrobial MIC [μM] S. aureus
[6] = ATCC8739, Table 1, E. coli ATCC8739, read-out: Antibacterial MIC (μM) E.Coli
[7] = Table 1, read-out: Antibacterial MIC (μM) S. aureus Smith

SMILES: Cc1nn(C)c(C)c1CCCNc1c(F)c(N)c2c(=O)c(C(=O)O)cn3c2c1OC[C@@H]3C [Example 93]
inhibition in vivo at 300 mg/kg [1, 3]: > 20%

IC50 ([2]; Table 2): < 100 nM
SMILES: C[C@H]1COc2c(NCCOc3ccc(F)cc3)c(F)c(N)c3c(=O)c(C(=O)O)cn1c23 [Example 101]
inhibition in vivo at 300 mg/kg [1, 3]: 10 to 20%

IC50 ([2]; Table 2): 100 to 500 nM
SMILES: C[C@H]1COc2c(NCCCn3ccnc3)c(F)c(N)c3c(=O)c(C(N)=O)cn1c23 [Example 107]
inhibition in vivo at 300 mg/kg [1, 3]: 10 to 20%

IC50 ([2]; Table 2): < 100 nM
SMILES: C[C@H]1COc2c(NCCNc3ccccn3)c(F)c(N)c3c(=O)c(C(N)=O)cn1c23 [Example 109]
inhibition in vivo at 300 mg/kg [1, 3]: 10 to 20%

IC50 ([2]; Table 2): < 100 nM
SMILES: C[C@H]1COc2c(NCCS(=O)(=O)N3CCCCC3)c(F)c(N)c3c(=O)c(C(=O)O)cn1c23 [Example 112]
inhibition in vivo at 300 mg/kg [1, 3]: < 5%

IC50 ([2]; Table 2): < 100 nM
SMILES: C[C@H]1COc2c(NCCNC3=NS(=O)(=O)c4ccccc43)c(F)c(N)c3c(=O)c(C(=O)O)cn1c23 [Example 113]
inhibition in vivo at 300 mg/kg [1, 3]: < 5%

SMILES: CC1(C)COc2c(NCCNc3ccccn3)c(F)c(N)c3c(=O)c(C(=O)O)cn1c23 [compound 17]
inhibition in vivo at 300 mg/kg ([1]; po): 10 to 20%

SMILES: CC(C)C[C@H]1COc2c(NCCCn3cnc4ccccc43)c(F)c(N)c3c(=O)c(C(=O)O)cn1c23 [compound 49]
inhibition in vivo at 300 mg/kg ([1]; po): 10 to 20%

SMILES: CC(C)[C@H]1COc2c(NCCCn3ccnc3)c(F)c(N)c3c(=O)c(C(=O)O)cn1c23 [compound 55]
inhibition in vivo at 300 mg/kg ([1]; po): 10 to 20%

IC50 ([2]; Table 2): 100 to 500 nM | MIC (E. coli, ATCC8739; [4]): > 50 µM | MIC (S. aureus Smith; [5]): > 50 µM
SMILES: CC1(C)Cn2cc(C(=O)O)c(=O)c3c(N)c(F)c(NCCCn4ccnc4)c(c32)O1 [compound 58]

IC50 ([2]; Table 1): 100 to 500 nM | MIC (E. coli, ATCC8739; [6]): 10 to 50 µM (≈ 4.34 to 21.7 µg/mL) | MIC (S. aureus Smith; [7]): 10 to 50 µM (≈ 4.34 to 21.7 µg/mL)
SMILES: Nc1c(F)c(NCCCc2ccccc2)c(F)c2c1c(=O)ccn2CCc1ccccc1 [compound 58]

IC50 ([2]; Table 2): 100 to 500 nM | MIC (E. coli, ATCC8739; [4]): 10 to 50 µM (≈ 4.25 to 21.3 µg/mL) | MIC (S. aureus Smith; [5]): 10 to 50 µM (≈ 4.25 to 21.3 µg/mL)
SMILES: CC1(C)Cn2cc(C(=O)O)c(=O)c3c(N)c(F)c(NCCCc4ccccc4)c(c32)O1 [compound 59]

IC50 ([2]; Table 1): 100 to 500 nM | MIC (E. coli, ATCC8739; [6]): > 50 µM | MIC (S. aureus Smith; [7]): > 50 µM
SMILES: Nc1c(F)c(NCCc2ccncc2)c(F)c2c1c(=O)ccn2CCc1ccccc1 [compound 59]

IC50 ([2]; Table 1): 500 to 1000 nM | MIC (E. coli, ATCC8739; [6]): 10 to 50 µM (≈ 4.15 to 20.8 µg/mL) | MIC (S. aureus Smith; [7]): 10 to 50 µM (≈ 4.15 to 20.8 µg/mL)
SMILES: CC(C)OCCCNc1c(F)c(N)c2c(=O)ccn(CCc3ccccc3)c2c1F [compound 60]

SMILES: CC(C)[C@H]1COc2c(NCCNc3ccccn3)c(F)c(N)c3c(=O)c(C(=O)O)cn1c23 [compound 60]
IC50 ([2]; Table 2): < 100 nM | MIC (E. coli, ATCC8739; [4]): 10 to 50 µM (≈ 4.41 to 22.1 µg/mL) | MIC (S. aureus Smith; [5]): 10 to 50 µM (≈ 4.41 to 22.1 µg/mL)

SMILES: CC(C)[C@H]1COc2c(NCCNc3ccccn3)c(F)c(N)c3c(=O)c(C(=O)O)cn1c23 [compound 61]
inhibition in vivo at 300 mg/kg ([1]; po): 10 to 20%

SMILES: Nc1c(F)c(NCCCn2ccnc2)c(F)c2c1c(=O)c(C(=O)O)cn2CCCn1ccnc1 [compound 61]
IC50 ([2]; Table 1): 100 to 500 nM | MIC (E. coli, ATCC8739; ATCC8739, read-out: Antibacterial MIC (μM) E.Coli): > 50 µM | MIC (S. aureus Smith; read-out: Antibacterial MIC (μM) S. aureus Smith): > 50 µM

IC50 ([2]; Table 2): < 100 nM | MIC (E. coli, ATCC8739; [4]): 0.5 to 10 µM (≈ 0.221 to 4.41 µg/mL) | MIC (S. aureus Smith; [5]): 0.5 to 10 µM (≈ 0.221 to 4.41 µg/mL)
SMILES: CC(C)[C@@H]1COc2c(NCCNc3ccccn3)c(F)c(N)c3c(=O)c(C(=O)O)cn1c23 [compound 62]

IC50 ([2]; Table 2): < 100 nM | MIC (E. coli, ATCC8739; [4]): > 50 µM | MIC (S. aureus Smith; [5]): 10 to 50 µM (≈ 4.29 to 21.5 µg/mL)
SMILES: CC(C)[C@@H]1COc2c(NCCCn3ccnc3)c(F)c(N)c3c(=O)c(C(=O)O)cn1c23 [compound 63]

IC50 ([2]; Table 1): 100 to 500 nM | MIC (E. coli, ATCC8739; [6]): 10 to 50 µM (≈ 4.35 to 21.8 µg/mL) | MIC (S. aureus Smith; [7]): 10 to 50 µM (≈ 4.35 to 21.8 µg/mL)
SMILES: Nc1c(F)c(NCCNc2ccccn2)c(F)c2c1c(=O)ccn2CCc1ccccc1 [compound 63]

IC50 ([2]; Table 2): < 100 nM | MIC (E. coli, ATCC8739; [4]): 0.5 to 10 µM (≈ 0.22 to 4.39 µg/mL) | MIC (S. aureus Smith; [5]): 0.5 to 10 µM (≈ 0.22 to 4.39 µg/mL)
SMILES: CC(C)[C@@H]1COc2c(NCCCc3ccccc3)c(F)c(N)c3c(=O)c(C(=O)O)cn1c23 [compound 64]

IC50 ([2]; Table 1): 100 to 500 nM | MIC (E. coli, ATCC8739; [6]): 10 to 50 µM (≈ 4.85 to 24.2 µg/mL) | MIC (S. aureus Smith; [7]): 10 to 50 µM (≈ 4.85 to 24.2 µg/mL)
SMILES: Nc1c(F)c(NCCNc2cccc3ccccc23)c(F)c2c1c(=O)ccn2CCc1ccccc1 [compound 64]
